Assay type in all cases: ADME, organism-based
Details in all cases: in vivo

Data set [1] is described as follows: Drug metabolism in CD-1 mouse assessed as 3-O-methylM23 formation by measuring Cmax at 1 mg/kg, iv measured for 24 hrs by UPLC-MS/MS analysis. On the set-up: dose 1 mg/kg, time 24 hrs, route iv.
Data set [2] can be described thus: Half life in CD-1 mouse at 1 mg/kg, iv measured for 24 hrs by UPLC-MS/MS analysis.
Data set [3] can be described thus: AUC (0 to 24 hrs) in CD-1 mouse at 1 mg/kg, iv by UPLC-MS/MS analysis. On the set-up: time 24 hrs, dose 1 mg/kg, route iv.
Data set [4] in a line: Cmax in CD-1 mouse at 1 mg/kg, iv measured for 24 hrs by UPLC-MS/MS analysis. On the set-up: dose 1 mg/kg, time 24 hrs, route iv.
A short description of data set [5]: Drug metabolism in CD-1 mouse assessed as 3-O-methylM23 formation by measuring AUC (0 to 24 hrs) at 1 mg/kg, iv by UPLC-MS/MS analysis. Details: time 24 hrs, dose 1 mg/kg, route iv.
Data set [6] in a line: Drug metabolism in CD-1 mouse assessed as 3-O-methylM23 formation by measuring half life at 1 mg/kg, iv measured for 24 hrs by UPLC-MS/MS analysis.
Data set [7] can be described thus: Tmax in CD-1 mouse at 10 mg/kg, po measured for 24 hrs by UPLC-MS/MS analysis.
Data set [8] can be described thus: Cmax in CD-1 mouse at 10 mg/kg, po measured for 24 hrs by UPLC-MS/MS analysis. Details: dose 10 mg/kg, time 24 hrs, route po.
Data set [9] can be described thus: AUC (0 to 24 hrs) in CD-1 mouse at 10 mg/kg, po measured for 24 hrs by UPLC-MS/MS analysis. On the set-up: time 24 hrs, dose 10 mg/kg, route po.
Data set [10] can be described thus: Half life in CD-1 mouse at 10 mg/kg, po measured for 24 hrs by UPLC-MS/MS analysis.
Data set [11] can be described thus: Drug metabolism in CD-1 mouse assessed as 3-O-methylM23 formation by measuring Tmax at 10 mg/kg, po measured for 24 hrs by UPLC-MS/MS analysis.
Data set [12] is described as follows: Drug metabolism in CD-1 mouse assessed as 3-O-methylM23 formation by measuring Cmax at 10 mg/kg, po measured for 24 hrs by UPLC-MS/MS analysis. On the set-up: time 24 hrs, dose 10 mg/kg, route po.
The nature of data set [13]: Drug metabolism in CD-1 mouse assessed as 3-O-methylM23 formation by measuring AUC (0 to 24 hrs) at 10 mg/kg, po by UPLC-MS/MS analysis. On the set-up: time 24 hrs, dose 10 mg/kg, route po.
Data set [14] can be described thus: Drug metabolism in CD-1 mouse assessed as 3-O-methylM23 formation by measuring half life at 10 mg/kg, po measured for 24 hrs by UPLC-MS/MS analysis.

The results in this text go back to ChEMBL document CHEMBL5335793, “PITB: A high affinity transthyretin aggregation inhibitor with optimal pharmacokinetic properties” (Eur J Med Chem, 2023).

What is called Cmax is the highest concentration seen after dosing. Broadly, the half-life is the time in which the quantity being followed falls by half. As usually defined, the AUC(0-t) is exposure summed from dosing to a finite time, without extrapolation to infinity. A word on the AUC: it is concentration integrated over time. As usually defined, the Tmax is the time at which the peak concentration occurs. For `O=C(c1cc(O)cc(F)c1)c1cc(O)c(O)c([N+](=O)[O-])c1`, the Cmax in data set [1] amounted to 555.3 ng/mL; in [4], 1360 ng/mL; in data set [8], 744 ng/mL; in data set [12], 96.7 ng/mL. In addition, the values for the half-life in [2] and in [10] were 1.5 h and 0.9 h, respectively. In addition, the exposure AUC(0-t) at 24 h in data set [3] came out at 761 ng·h/mL; in [9], 866 ng·h/mL. Besides, the values for the AUC in data set [5] and in data set [13] were 462.1 ng·h/mL and 209.1 ng·h/mL, respectively. For the same compound, the t1/2 in [6] is 2.7 h; in data set [14], 2.8 h. Further, the Tmax in [7] and in data set [11] was < 0.25 h in each case.
